Results from ChEMBL document CHEMBL2429750, “Inhibitors of tick-borne flavivirus reproduction from structure-based virtual screening” (ACS Med Chem Lett, 2013).

Legend:
[1] = system: Omsk hemorrhagic fever virus; test: Antiviral activity against Omsk hemorrhagic fever virus Nikitina infected in PEK cells assessed as inhibition of viral plaque formation after 1 hr by gentian violet staining assay; format: functional, cell-based
Powassan virus = test: Antiviral activity against Powassan virus 24 infected in PEK cells assessed as inhibition of viral plaque formation after 1 hr by gentian violet staining assay; format: functional, cell-based; settings: for IC50: Powassan virus, 24, PEK
[2] = system: Tick-borne encephalitis virus; test: Antiviral activity against Tick-borne encephalitis virus Absettarov infected in PEK cells assessed as inhibition of viral plaque formation after 1 hr by gentian violet staining assay; format: functional, cell-based
[3] = Chronic cytotoxicity against PEK cells after 7 days by neutral red staining assay; format: cell-based, Sus scrofa; settings: pig
[4] = Acute cytotoxicity against PEK cells after 24 hrs by neutral red staining assay; format: cell-based, Sus scrofa; settings: pig

Structure (SMILES) | IC50 [1] [µM] | inhibition [1] | inhibition (Powassan virus) | IC50 (Powassan virus) [µM] | IC50 [2] [µM] | inhibition [2] | CC50 at 168 h [3] [µM] | CC50 at 24 h [4] [µM]
CCc1ccc(NC(=O)CSC2=C(C#N)C(c3ccco3)C(C(=O)Nc3ccc(S(N)(=O)=O)cc3)=C(C)N2)cc1 (racemic) | 10 | Dose-dependent effect | Dose-dependent effect | > 10 | > 10 | Dose-dependent effect | 153 | > 250
CC1=C(C(=O)Nc2ccccc2)C(c2cccs2)C(C#N)=C(SCC(=O)c2ccccc2)N1 (racemic) | > 10 | Dose-dependent effect | Dose-dependent effect | > 10 | > 10 | Dose-dependent effect | 17 | > 250
CC1=C(C(=O)Nc2nc3ccccc3s2)C(c2ccco2)C(C#N)=C(SCC(=O)Nc2ccc(C(C)C)cc2)N1 (racemic) | 2.5 | Dose-dependent effect | Dose-dependent effect | > 10 | > 10 | Dose-dependent effect | 29 | > 250
CC1=C(C(=O)Nc2ccccc2)C(c2ccco2)C(C#N)=C(SCC(=O)Nc2ccc(C)c(C)c2)N1 (racemic) | 3.2 | Dose-dependent effect | Dose-dependent effect | > 10 | > 10 | Dose-dependent effect | 19 | > 250
CC1=C(C(=O)Nc2ccc(Cl)cc2)C(c2ccccc2)C(C#N)=C(SCC(=O)Nc2ccc(Oc3ccccc3)cc2)N1 (racemic) | > 10 | Dose-dependent effect | Dose-dependent effect | > 10 | 2.8 | Dose-dependent effect | 38 | > 250
CCc1ccc(NC(=O)CSC2=C(C#N)C(c3ccc(O)c(OC)c3)C(C(=O)Nc3ccccc3)=C(C)N2)cc1 (racemic) | 1.8 | Dose-dependent effect | Dose-dependent effect | > 10 | > 10 | Dose-dependent effect | 31 | 114
CC1=C(C(=O)Nc2c(C)cccc2C)C(c2ccco2)C(C#N)=C(SCC(=O)Nc2nc3ccccc3s2)N1 (racemic) | 7.1 | Dose-dependent effect | Dose-dependent effect | > 10 | > 10 | Dose-dependent effect | 7 | > 250
CCc1ccc(N2CSC3=C(C#N)C(c4cccc(OCc5ccccc5)c4)CC(=O)N3C2)cc1 (racemic) | > 11.9 | Dose-dependent effect | Dose-dependent effect | > 10 | > 10 | Dose-dependent effect | 236 | > 250
CCCCc1ccc(NC(=O)CSC2=C(C#N)C(c3ccco3)C(C(=O)Nc3ccc(OCC)cc3)=C(C)N2)cc1 (racemic) | > 10 | Dose-dependent effect | Dose-dependent effect | > 10 | 2.5 | Dose-dependent effect | 14 | 64
CC1=C(C(=O)Nc2nc3ccccc3s2)C(c2ccco2)C(C#N)=C(SCC(=O)Nc2nc3ccccc3s2)N1 (racemic) | 2.5 | Dose-dependent effect | Dose-dependent effect | > 10 | > 10 | Dose-dependent effect | 52 | > 250
COc1ccc(N2CSC3=C(C#N)C(c4ccc(OCc5ccccc5)c(OC)c4)CC(=O)N3C2)cc1 (racemic) | > 10 | Dose-dependent effect | Dose-dependent effect | > 10 | 0.09 | Dose-dependent effect | 53 | > 250
COc1ccc(N2CSC3=C(C#N)C(c4ccc(OCc5ccc(Cl)cc5)cc4)CC(=O)N3C2)c(OC)c1 (racemic) | > 10 | Dose-dependent effect | Dose-dependent effect | 1.3 | 0.07 | Dose-dependent effect | 39 | 109
CCc1ccc(NC(=O)CSC2=C(C#N)C(c3ccco3)C(C(=O)Nc3ccc(Cl)cc3)=C(C)N2)cc1 (racemic) | > 10 | Dose-dependent effect | Dose-dependent effect | > 10 | > 10 | Dose-dependent effect | 27 | 26
CCCCc1ccc(N2CSC3=C(C#N)C(c4ccc(OCc5ccccc5)cc4)CC(=O)N3C2)cc1 (racemic) | > 10 | Dose-dependent effect | Dose-dependent effect | > 10 | 1.9 | Dose-dependent effect | 35 | > 250
CC1=C(C(=O)Nc2ccc(Cl)cc2)C(c2ccccc2)C(C#N)=C(SCC(=O)Nc2ccc3ccccc3c2)N1 (racemic) | > 10 | Dose-dependent effect | Dose-dependent effect | > 10 | > 10 | Dose-dependent effect | 20 | 111
CCc1ccc(NC(=O)CSC2=C(C#N)C(c3ccco3)C(C(=O)Nc3ccc(CC)cc3)=C(C)N2)cc1 (racemic) | > 10 | Dose-dependent effect | Dose-dependent effect | > 10 | > 10 | Dose-dependent effect | 33 | 57
CC1=C(C(=O)Nc2ccccc2C)C(c2ccco2)C(C#N)=C(SCC(=O)Nc2ccc3ccccc3c2)N1 (racemic) | 5.3 | Dose-dependent effect | Dose-dependent effect | > 10 | > 10 | Dose-dependent effect | > 250 | > 250
CCOc1ccccc1N1CSC2=C(C#N)C(c3cccc(OCc4ccccc4)c3)CC(=O)N2C1 (racemic) | > 10 | Dose-dependent effect | Dose-dependent effect | 2.2 | 2.6 | Dose-dependent effect | 116 | > 250
COc1ccccc1NC(=O)C1=C(C)NC(SCC(=O)Nc2ccc(Br)cc2)=C(C#N)C1c1ccc(C)o1 (racemic) | 3.7 | Dose-dependent effect | Dose-dependent effect | > 10 | > 10 | Dose-dependent effect | 34 | 248
CC1=C(C(=O)Nc2ccc(Cl)cc2)C(c2ccccc2)C(C#N)=C(SCC(=O)Nc2cccc(C)c2)N1 (racemic) | > 10 | Dose-dependent effect | Dose-dependent effect | > 10 | 2 | Dose-dependent effect | 41 | > 250
COc1ccccc1NC(=O)C1=C(C)NC(SCC(=O)Nc2ccc(C)cc2)=C(C#N)C1c1cccs1 (racemic) | 5.5 | Dose-dependent effect | Dose-dependent effect | > 10 | > 10 | Dose-dependent effect | 97 | > 250
COc1ccc(NC(=O)CSC2=C(C#N)C(c3ccccc3F)C(C(=O)Nc3ccccc3C)=C(C)N2)cc1 (racemic) | 7.2 | Dose-dependent effect | Dose-dependent effect | > 10 | > 10 | Dose-dependent effect | 89 | > 250
